One assay has as its target Sumo. Description: Fluorescence polarization saturation binding of fluorescent probe to Sumo (control protein). Conditions: saturation-binding format, read-out: Sinefungin Probe 1A Affinity. Here is the method:
(§1) Sinefungin Probe 1A was tested for the ability to bind to 16 proteins, including several non-methlytransferase protein controls (Table 2). This probe binds to 4 methyltransferases (SET7/9, G9a, GLP, MLL) with Kd values <2 μM.
A general note: Fluorescence polarisation rises when a labelled molecule tumbles more slowly, as on binding a larger partner.

In a further assay the target is ASH2L (Homo sapiens, UniProt Q9UBL3). Description: Fluorescence polarization saturation binding of fluorescent probe to ASH2L. Conditions: saturation-binding format, read-out: Sinefungin Probe 1A Affinity. The procedure: as §1
A further assay deals with KMT5b (Homo sapiens, UniProt Q4FZB7). The assay is described as follows: Fluorescence polarization saturation binding of fluorescent probe to KMT5b. Conditions: saturation-binding format, mean ± SEM, read-out: Sinefungin Probe 1A Affinity. The procedure: as §1
The next assay has as its system MLL. Description: High-throughput FP Sinefungin Probe 1A binding assay adapted for MLL. Conditions: MLL 1 μM, FIG. 10. The procedure:
Adaptation for GLP and MLL: Assays for probe binding to two other methyltransferases (GLP and MLL) were also adapted to high throughput format. The assay conditions were identical to the SET7/9 assay, however the protein concentration was increased to raise the signal:noise ratio for the assay. For GLP, the protein concentration was raised to 500 nM, while the concentration of MLL was raised to 1 μM. Data were analyzed in GraphPad Prism (v. 5.04) and/or GeneData (v. 9.01).
This assay was also adapted for high throughput format against the methyltransferase MLL (Cayman Catalog Item #10658). Relevant data are illustrated in FIG. 10: The fluorescence polarization (FP) Sinefungin Probe 1A binding assay was adapted to a high-throughput inhibitor screening format for both A) MLL and B) SET7/9. The probe polarization is increased by >120 mp by binding to SET7/9 (30 nM) and by >145 mp by binding to MLL (1 μM). […] Sixty-four replicates were tested for each condition for SET7/9, sixteen replicates were tested for MLL. Z′ factor scores were >0.5 for all conditions tested (SET7/9:sinefungin: 0.71; SAM: 0.72; no SET7/9: 0.69; MLL:sinefungin: 0.72).

The target in a further assay is T1, SET7/9 (Homo sapiens, UniProt Q8WTS6).
T1 construct: purchased Cayman 10320
T1 sequence (Q8WTS6 1-366): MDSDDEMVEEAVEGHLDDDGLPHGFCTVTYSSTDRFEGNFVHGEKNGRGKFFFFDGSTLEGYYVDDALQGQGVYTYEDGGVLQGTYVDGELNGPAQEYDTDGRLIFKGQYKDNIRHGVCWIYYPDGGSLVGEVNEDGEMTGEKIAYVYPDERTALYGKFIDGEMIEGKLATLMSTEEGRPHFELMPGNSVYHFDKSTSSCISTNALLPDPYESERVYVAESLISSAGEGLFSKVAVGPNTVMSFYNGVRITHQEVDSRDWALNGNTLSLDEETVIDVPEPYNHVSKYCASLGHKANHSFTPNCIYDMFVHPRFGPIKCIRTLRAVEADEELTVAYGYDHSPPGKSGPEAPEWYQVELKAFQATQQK
Description: SET7/9 SAM-Screener high-throughput FP assay, Sinefungin Probe 1A displacement. In kind it is binding. To be noted: SET7/9 30 nM, FIG. 10.

In the next assay the target is T2, GLP (Homo sapiens, UniProt Q9H9B1).
T2 sequence (Q9H9B1 1-1298): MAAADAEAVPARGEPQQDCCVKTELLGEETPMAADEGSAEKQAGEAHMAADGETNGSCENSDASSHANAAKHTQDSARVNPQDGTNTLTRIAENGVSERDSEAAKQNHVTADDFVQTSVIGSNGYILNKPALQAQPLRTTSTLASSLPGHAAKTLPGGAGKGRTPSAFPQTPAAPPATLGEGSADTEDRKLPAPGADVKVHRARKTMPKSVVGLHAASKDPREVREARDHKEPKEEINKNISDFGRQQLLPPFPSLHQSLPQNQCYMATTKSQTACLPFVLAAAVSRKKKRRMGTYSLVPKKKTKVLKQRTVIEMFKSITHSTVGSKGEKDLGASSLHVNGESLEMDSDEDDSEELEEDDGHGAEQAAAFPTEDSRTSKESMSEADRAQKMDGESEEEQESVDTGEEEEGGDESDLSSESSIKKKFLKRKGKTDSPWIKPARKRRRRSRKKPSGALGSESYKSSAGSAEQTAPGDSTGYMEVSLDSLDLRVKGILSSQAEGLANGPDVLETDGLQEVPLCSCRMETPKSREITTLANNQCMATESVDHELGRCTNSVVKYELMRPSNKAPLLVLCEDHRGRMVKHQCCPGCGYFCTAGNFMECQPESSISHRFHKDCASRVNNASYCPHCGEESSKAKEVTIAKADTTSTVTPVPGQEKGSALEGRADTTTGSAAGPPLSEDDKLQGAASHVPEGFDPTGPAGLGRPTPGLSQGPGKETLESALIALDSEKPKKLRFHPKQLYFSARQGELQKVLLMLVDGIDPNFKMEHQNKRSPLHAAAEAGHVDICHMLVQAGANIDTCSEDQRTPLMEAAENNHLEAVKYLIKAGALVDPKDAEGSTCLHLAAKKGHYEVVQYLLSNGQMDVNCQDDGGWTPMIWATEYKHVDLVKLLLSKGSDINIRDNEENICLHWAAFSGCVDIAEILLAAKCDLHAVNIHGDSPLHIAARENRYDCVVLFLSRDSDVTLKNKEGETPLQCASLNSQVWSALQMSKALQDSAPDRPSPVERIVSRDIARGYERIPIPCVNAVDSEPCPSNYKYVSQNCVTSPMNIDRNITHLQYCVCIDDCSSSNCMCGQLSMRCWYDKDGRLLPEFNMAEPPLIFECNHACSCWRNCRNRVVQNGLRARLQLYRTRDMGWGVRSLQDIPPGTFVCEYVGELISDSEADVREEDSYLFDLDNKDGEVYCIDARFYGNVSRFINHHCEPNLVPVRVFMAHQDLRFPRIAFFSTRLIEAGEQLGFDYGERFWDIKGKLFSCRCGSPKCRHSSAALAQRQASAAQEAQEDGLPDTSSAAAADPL
The assay is described as follows: Fluorescence polarization saturation binding of fluorescent probe to GLP. Conditions: saturation-binding format, mean ± SEM, read-out: Sinefungin Probe 1A Affinity. The procedure:
as §1

The target in the next assay is KMT5c (Homo sapiens, UniProt Q86Y97). Description: Fluorescence polarization saturation binding of fluorescent probe to KMT5c. To be noted: saturation-binding format, read-out: Sinefungin Probe 1A Affinity. Here is the method: as §1
Another assay addresses T3, PRDM9 (Homo sapiens, UniProt Q9NQV7).
T3 construct: purchased Cayman
Description: Fluorescence polarization saturation binding of fluorescent probe to PRDM9. To be noted: saturation-binding format, mean ± SEM, read-out: Sinefungin Probe 1A Affinity. Here is the method:
as §1

Chain of KMT5b (Q4FZB7 whole entry, species assumed): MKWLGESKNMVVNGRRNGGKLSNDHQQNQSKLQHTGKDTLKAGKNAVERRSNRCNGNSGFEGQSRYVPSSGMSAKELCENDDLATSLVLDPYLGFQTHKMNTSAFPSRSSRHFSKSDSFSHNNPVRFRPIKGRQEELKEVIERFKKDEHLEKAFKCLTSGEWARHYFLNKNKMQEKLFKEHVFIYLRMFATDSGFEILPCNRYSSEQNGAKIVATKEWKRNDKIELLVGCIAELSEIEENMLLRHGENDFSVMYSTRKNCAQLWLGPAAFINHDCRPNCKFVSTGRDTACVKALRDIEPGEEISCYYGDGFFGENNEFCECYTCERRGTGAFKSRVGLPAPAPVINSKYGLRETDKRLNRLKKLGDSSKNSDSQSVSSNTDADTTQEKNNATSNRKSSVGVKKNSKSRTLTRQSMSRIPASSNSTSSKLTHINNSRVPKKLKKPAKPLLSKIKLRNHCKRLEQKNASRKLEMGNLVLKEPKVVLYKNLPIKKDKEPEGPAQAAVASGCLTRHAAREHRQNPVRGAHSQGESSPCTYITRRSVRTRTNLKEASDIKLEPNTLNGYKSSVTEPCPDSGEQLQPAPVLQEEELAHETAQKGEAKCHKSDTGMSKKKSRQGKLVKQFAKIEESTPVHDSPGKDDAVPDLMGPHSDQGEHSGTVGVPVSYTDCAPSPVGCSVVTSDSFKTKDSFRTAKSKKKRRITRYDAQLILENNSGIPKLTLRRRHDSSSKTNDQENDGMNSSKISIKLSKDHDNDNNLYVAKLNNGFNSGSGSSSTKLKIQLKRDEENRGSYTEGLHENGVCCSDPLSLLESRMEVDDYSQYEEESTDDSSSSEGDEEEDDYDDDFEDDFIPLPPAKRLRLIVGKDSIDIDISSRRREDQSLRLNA
Chain of KMT5c (Q86Y97 whole entry, species assumed): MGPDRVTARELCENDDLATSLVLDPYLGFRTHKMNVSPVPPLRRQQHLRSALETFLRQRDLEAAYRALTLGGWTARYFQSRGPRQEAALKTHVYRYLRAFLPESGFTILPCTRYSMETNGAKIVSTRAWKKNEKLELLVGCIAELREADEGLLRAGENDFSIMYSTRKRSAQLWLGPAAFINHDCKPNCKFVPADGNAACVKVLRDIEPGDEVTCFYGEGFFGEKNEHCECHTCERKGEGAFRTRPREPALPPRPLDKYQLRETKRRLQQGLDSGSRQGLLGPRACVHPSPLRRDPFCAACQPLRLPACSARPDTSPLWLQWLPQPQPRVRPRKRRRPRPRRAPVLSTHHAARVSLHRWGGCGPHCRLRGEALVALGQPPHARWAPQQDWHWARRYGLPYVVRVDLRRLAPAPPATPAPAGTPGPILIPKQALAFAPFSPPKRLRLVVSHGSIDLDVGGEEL
Chain of ASH2L (Q9UBL3 whole entry, species assumed): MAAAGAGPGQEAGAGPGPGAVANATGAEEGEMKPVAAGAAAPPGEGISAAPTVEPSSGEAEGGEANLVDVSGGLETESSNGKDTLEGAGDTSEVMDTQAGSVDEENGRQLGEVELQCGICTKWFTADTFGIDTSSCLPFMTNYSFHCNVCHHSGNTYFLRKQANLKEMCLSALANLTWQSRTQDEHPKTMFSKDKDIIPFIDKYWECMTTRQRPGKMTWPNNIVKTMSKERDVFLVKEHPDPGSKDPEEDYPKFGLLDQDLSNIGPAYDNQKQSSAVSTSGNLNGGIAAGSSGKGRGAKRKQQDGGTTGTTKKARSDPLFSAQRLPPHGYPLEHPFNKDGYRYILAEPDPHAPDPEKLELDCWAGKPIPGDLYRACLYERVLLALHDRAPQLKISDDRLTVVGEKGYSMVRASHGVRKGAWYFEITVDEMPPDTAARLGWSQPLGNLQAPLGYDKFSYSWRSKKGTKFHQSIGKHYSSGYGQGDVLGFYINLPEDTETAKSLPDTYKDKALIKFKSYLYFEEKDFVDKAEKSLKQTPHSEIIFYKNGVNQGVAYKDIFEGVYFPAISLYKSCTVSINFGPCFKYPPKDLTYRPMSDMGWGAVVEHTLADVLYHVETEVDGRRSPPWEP
T3 sequence (Q9NQV7 whole entry, species assumed): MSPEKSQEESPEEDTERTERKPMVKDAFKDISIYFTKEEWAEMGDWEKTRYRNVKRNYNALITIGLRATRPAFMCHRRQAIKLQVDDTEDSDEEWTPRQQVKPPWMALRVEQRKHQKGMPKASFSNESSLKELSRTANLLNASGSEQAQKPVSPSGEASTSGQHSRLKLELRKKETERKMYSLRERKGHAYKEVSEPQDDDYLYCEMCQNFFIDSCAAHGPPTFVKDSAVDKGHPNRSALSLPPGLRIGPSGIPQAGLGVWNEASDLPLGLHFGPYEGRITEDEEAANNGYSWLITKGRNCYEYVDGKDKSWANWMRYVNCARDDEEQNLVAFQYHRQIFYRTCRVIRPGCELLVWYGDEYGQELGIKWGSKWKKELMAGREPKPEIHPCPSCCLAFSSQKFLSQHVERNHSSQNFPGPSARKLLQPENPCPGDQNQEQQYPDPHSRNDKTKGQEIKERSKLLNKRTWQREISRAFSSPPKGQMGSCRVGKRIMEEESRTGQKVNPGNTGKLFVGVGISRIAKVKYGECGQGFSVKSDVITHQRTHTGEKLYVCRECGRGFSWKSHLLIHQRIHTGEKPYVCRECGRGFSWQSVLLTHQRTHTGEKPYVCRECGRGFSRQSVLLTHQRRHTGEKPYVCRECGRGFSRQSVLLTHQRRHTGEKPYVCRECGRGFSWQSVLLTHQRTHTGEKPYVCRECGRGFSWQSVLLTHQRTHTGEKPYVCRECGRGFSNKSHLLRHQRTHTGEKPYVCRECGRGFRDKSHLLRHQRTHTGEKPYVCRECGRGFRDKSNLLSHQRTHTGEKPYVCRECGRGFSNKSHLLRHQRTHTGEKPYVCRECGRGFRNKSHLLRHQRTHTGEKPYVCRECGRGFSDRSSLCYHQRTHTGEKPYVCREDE
Description for SET7/9: Methods: A collection of 14,400 compounds from the Maybridge HitFinder collection of compounds was assayed for the displacement of Sinefungin Probe 1A from SET7/9 in a high-throughput manner using the SET7/9 SAM-Screener FP assay Cayman Catalog Item #600490). Thirty microliters of assay buffer (50 mM Tris pH 8.0, 50 mM KCl, 5 mM CHAPS, 2 mM DTT) was added to every well of a black 384-well polystyrene microtiter plate (Thermo-Fisher 364576). To every well, excluding control wells, was added one microliter of a DMSO solution containing a test compound. Control wells received either 1 μl DMSO or 1 μl of a sinefungin solution. The final concentration of sinefungin control or test compounds in the assay was 50 μM or 10 μM, respectively. To every well of the plate was added 10 μl of a SET7/9 solution to give a final assay concentration of 30 nM. After a 15-minute incubation at ambient temperature, 10 μl of Sinefungin Probe 1A solution was added to every well to give a final assay concentration of 10 nM in a total assay volume of 50 μl Samples were analyzed using a Biotek Synergy H4 plate reader in fluorescence polarization mode after a 30-minute incubation at ambient temperature in the dark. Data were analyzed using GeneData (v. 9.01). […]

For the compound `Nc1ncnc2c1ncn2[C@@H]1O[C@H](C[C@@H](N)CC[C@H](N)C(=O)O)[C@@H](OCc2cnnn2CCCCCCNC(=O)OC2CCN(C(=O)c3ccccc3C3=c4cc5c6c(c4Oc4c3cc3c7c4CCCN7CCC3)CCC[N+]=6CCC5)CC2)[C@H]1O` [Sinefungin Probe 1A], the Kd on Sumo is above 10000 nM; on ASH2L, above 10000 nM; at KMT5b, 6100 ± 800 nM; on GLP, 580 ± 50 nM; at KMT5c, above 2000 nM; at PRDM9, 2600 ± 600 nM. The entries for the “increase of probe polarization by binding” value with MLL and on SET7/9 were above 145 mp and above 120 mp, respectively.

(Values after patent publication US9120820B2, “Fluorescent molecular probes for use in assays that measure test compound competitive binding with SAM-utilizing proteins” (CAYMAN CHEMICAL COMPANY, INCORPORATED, priority 2011, dated 2015).)
